Reference: publication PMC5218480 (PLoS ONE, 2017)

Test system: MV-4-11 cells
Assay: Gene expression microarray analysis (Affymetrix PrimeView) and GSEA
Format: cell-based, human
Parameters: RFU PODN (11730768_x_at) / Fold change /veh PODN (11730768_x_at) / RFU LINC00158 (11744669_a_at) / Fold change /veh LINC00158 (11744669_a_at) / RFU DUSP10 (11751237_a_at) / Fold change /veh DUSP10 (11751237_a_at) / RFU ID3 (11757404_x_at) / Fold change /veh ID3 (11757404_x_at) / RFU PLEKHG5 (11737974_s_at) / Fold change /veh PLEKHG5 (11737974_s_at) / RFU LRRC4B (11730491_at) / Fold change /veh LRRC4B (11730491_at) / RFU GIMAP4 (11747438_a_at) / Fold change /veh GIMAP4 (11747438_a_at) / RFU KRT8 (11758183_x_at) / Fold change /veh KRT8 (11758183_x_at) / RFU CNN1 (11734310_a_at) / Fold change /veh CNN1 (11734310_a_at) / RFU VPS37D (11726825_at) / Fold change /veh VPS37D (11726825_at) / RFU C10orf10 (11716522_x_at) / Fold change /veh C10orf10 (11716522_x_at) / RFU KIR2DL2 /// KIR2DL4 /// KIR2DL5A /// KIR2DL5B /// KIR2DS1 /// KIR2DS2 /// KIR2DS3 /// KIR2DS4 /// KIR3DL3 /// KIR3DL3 /// KIR3DS1 (11738374_at) / Fold change /veh KIR2DL2 /// KIR2DL4 /// KIR2DL5A /// KIR2DL5B /// KIR2DS1 /// KIR2DS2 /// KIR2DS3 /// KIR2DS4 /// KIR3DL3 /// KIR3DL3 /// KIR3DS1 (11738374_at) / RFU C1QL1 (11718748_at) / Fold change /veh C1QL1 (11718748_at) / RFU TMPRSS4 (11747572_a_at) / Fold change /veh TMPRSS4 (11747572_a_at) / RFU HAMP (11756126_x_at) / Fold change /veh HAMP (11756126_x_at) / RFU RNFT2 (11725882_a_at) / Fold change /veh RNFT2 (11725882_a_at) / RFU NR4A2 (11747474_a_at) / Fold change /veh NR4A2 (11747474_a_at) / RFU ABCC12 (11746883_a_at) / Fold change /veh ABCC12 (11746883_a_at) / RFU TMEM136 (11760407_x_at) / Fold change /veh TMEM136 (11760407_x_at) / RFU CLDN22 /// WWC2 (11732394_at) / Fold change /veh CLDN22 /// WWC2 (11732394_at) / RFU HLA-DPB1 (11760878_x_at) / Fold change /veh HLA-DPB1 (11760878_x_at) / RFU SPINT1 (11716480_a_at) / Fold change /veh SPINT1 (11716480_a_at) / RFU GAP43 (11754022_s_at) / Fold change /veh GAP43 (11754022_s_at) / RFU A4GNT (11735810_at) / Fold change /veh A4GNT (11735810_at) / RFU PRB3 (11715151_x_at) / Fold change /veh PRB3 (11715151_x_at) / RFU TUBB4B (11761932_at) / Fold change /veh TUBB4B (11761932_at) / RFU CAPN14 (11732068_a_at) / Fold change /veh CAPN14 (11732068_a_at) / RFU TMCC2 (11721928_a_at) / Fold change /veh TMCC2 (11721928_a_at) / RFU IRGQ (11745062_a_at) / Fold change /veh IRGQ (11745062_a_at) / RFU FAM174B (11720279_a_at) / Fold change /veh FAM174B (11720279_a_at) / RFU TMPRSS4 (11748680_a_at) / Fold change /veh TMPRSS4 (11748680_a_at) / RFU FAM212B (11763350_a_at) / Fold change /veh FAM212B (11763350_a_at) / RFU PLEKHG5 (11743358_a_at) / Fold change /veh PLEKHG5 (11743358_a_at) / RFU ZSCAN30 (11745921_a_at) / Fold change /veh ZSCAN30 (11745921_a_at) / RFU CMKLR1 (11741424_a_at) / Fold change /veh CMKLR1 (11741424_a_at) / RFU LOC101060620 /// MAPK8IP1 (11723275_at) / Fold change /veh LOC101060620 /// MAPK8IP1 (11723275_at) / RFU SPTSSB (11747773_x_at) / Fold change /veh SPTSSB (11747773_x_at) / RFU PRSS12 (11739890_at) / Fold change /veh PRSS12 (11739890_at) / RFU BIN1 (11741810_x_at) / Fold change /veh BIN1 (11741810_x_at) / RFU WNT11 (11732464_a_at) / Fold change /veh WNT11 (11732464_a_at) / RFU C10orf10 (11716521_a_at) / Fold change /veh C10orf10 (11716521_a_at) / RFU C5orf56 (11738089_at) / Fold change /veh C5orf56 (11738089_at) / RFU CYB561 (11721691_x_at) / Fold change /veh CYB561 (11721691_x_at) / RFU ANKRD19P (11752326_a_at) / Fold change /veh ANKRD19P (11752326_a_at) / RFU OR2T12 /// OR2T33 /// OR2T8 (11738714_s_at) / Fold change /veh OR2T12 /// OR2T33 /// OR2T8 (11738714_s_at) / RFU VCAN (11748164_a_at) / Fold change /veh VCAN (11748164_a_at) / RFU JSRP1 (11732532_at) / Fold change /veh JSRP1 (11732532_at) / RFU KRTAP10-11 (11738290_x_at) / Fold change /veh KRTAP10-11 (11738290_x_at) / RFU MYO3A (11730013_a_at) / Fold change /veh MYO3A (11730013_a_at) / RFU EBF3 (11725865_a_at) / Fold change /veh EBF3 (11725865_a_at) / RFU CAMK2N1 (11719241_x_at) / Fold change /veh CAMK2N1 (11719241_x_at) / RFU C5orf56 (11738088_a_at) / Fold change /veh C5orf56 (11738088_a_at) / RFU OLFML3 (11715873_a_at) / Fold change /veh OLFML3 (11715873_a_at) / RFU LOC100653217 /// NTM (11731650_a_at) / Fold change /veh LOC100653217 /// NTM (11731650_a_at) / RFU MAPK11 (11762145_a_at) / Fold change /veh MAPK11 (11762145_a_at) / RFU FIZ1 (11724087_x_at) / Fold change /veh FIZ1 (11724087_x_at) / RFU OASL (11726364_x_at) / Fold change /veh OASL (11726364_x_at) / RFU SOX15 (11748057_x_at) / Fold change /veh SOX15 (11748057_x_at) / RFU CD79A (11719716_a_at) / Fold change /veh CD79A (11719716_a_at) / RFU HIST1H1D (11736915_at) / Fold change /veh HIST1H1D (11736915_at) / RFU CASKIN2 (11723855_a_at) / Fold change /veh CASKIN2 (11723855_a_at) / RFU LOC730098 (11760151_x_at) / Fold change /veh LOC730098 (11760151_x_at) / RFU OR4N2 (11742367_at) / Fold change /veh OR4N2 (11742367_at) / RFU PRRT2 (11749266_a_at) / Fold change /veh PRRT2 (11749266_a_at) / RFU SNX32 (11753110_a_at) / Fold change /veh SNX32 (11753110_a_at) / RFU CDHR5 (11726645_a_at) / Fold change /veh CDHR5 (11726645_a_at) / RFU RCAN1 (11760418_a_at) / Fold change /veh RCAN1 (11760418_a_at) / RFU FAM167A (11723789_a_at) / Fold change /veh FAM167A (11723789_a_at) / RFU FAM26E (11764081_at) / Fold change /veh FAM26E (11764081_at) / RFU ISYNA1 (11749810_s_at) / Fold change /veh ISYNA1 (11749810_s_at) / RFU ACY1 (11761880_at) / Fold change /veh ACY1 (11761880_at) / RFU 11764098_at / Fold change /veh 11764098_at / RFU SAMD14 (11745864_x_at) / Fold change /veh SAMD14 (11745864_x_at) / RFU NPB (11741838_a_at) / Fold change /veh NPB (11741838_a_at) / RFU TMPRSS6 (11731388_a_at) / Fold change /veh TMPRSS6 (11731388_a_at) / RFU KRTAP10-2 (11738614_at) / Fold change /veh KRTAP10-2 (11738614_at) / RFU ARHGAP8 /// PRR5-ARHGAP8 (11727945_x_at) / Fold change /veh ARHGAP8 /// PRR5-ARHGAP8 (11727945_x_at) / RFU KRTAP5-7 /// NADSYN1 (11734609_at) / Fold change /veh KRTAP5-7 /// NADSYN1 (11734609_at) / RFU RASL12 (11751679_a_at) / Fold change /veh RASL12 (11751679_a_at) / RFU CDKN2B (11736163_a_at) / Fold change /veh CDKN2B (11736163_a_at) / RFU PRF1 (11729649_at) / Fold change /veh PRF1 (11729649_at) / RFU, ZNF638 /// ZNF638-IT1 / Fold change vs veh, ZNF638 /// ZNF638-IT1 / RFU, PANK3 / Fold change vs veh, PANK3 / RFU, SH3YL1 / Fold change vs veh, SH3YL1 / RFU, ZEB2 / Fold change vs veh, ZEB2 / RFU, NRIP1 / Fold change vs veh, NRIP1 / RFU, PTTG1IP / Fold change vs veh, PTTG1IP / RFU, CAPN2 / Fold change vs veh, CAPN2 / RFU, MED14 / Fold change vs veh, MED14 / RFU, SNORA58 / Fold change vs veh, SNORA58 / RFU, C1orf63 / Fold change vs veh, C1orf63 / RFU, LRRFIP1 / Fold change vs veh, LRRFIP1 / RFU, NDUFAF7 / Fold change vs veh, NDUFAF7 / RFU, SLC12A2 / Fold change vs veh, SLC12A2 / RFU, IBTK / Fold change vs veh, IBTK / RFU, ESF1 / Fold change vs veh, ESF1 / Fold change vs veh, TMEM50B / RFU, TAOK1 / Fold change vs veh, TAOK1 / RFU, ACBD3 / Fold change vs veh, ACBD3 / RFU, TMA16 / Fold change vs veh, TMA16 / RFU, RWDD3 / Fold change vs veh, RWDD3 / RFU, BCAT1 / Fold change vs veh, BCAT1 / RFU, EDEM3 / Fold change vs veh, EDEM3 / RFU, TMEM33 / Fold change vs veh, TMEM33 / RFU, WDR75 / Fold change vs veh, WDR75 / RFU, AHCTF1 / Fold change vs veh, AHCTF1 / RFU, TFRC / Fold change vs veh, TFRC / RFU, ZDHHC17 / Fold change vs veh, ZDHHC17 / RFU, NOM1 / Fold change vs veh, NOM1 / RFU, ARL8B / Fold change vs veh, ARL8B / RFU, ZBTB11 / Fold change vs veh, ZBTB11 / RFU, TAMM41 / Fold change vs veh, TAMM41 / RFU, KIAA1704 /// LOC100996395 / Fold change vs veh, KIAA1704 /// LOC100996395 / RFU, ING1 / Fold change vs veh, ING1 / RFU, TRMT61B / Fold change vs veh, TRMT61B / RFU, FUBP3 / Fold change vs veh, FUBP3 / RFU, TP53 / Fold change vs veh, TP53 / RFU, TNKS2 / Fold change vs veh, TNKS2 / RFU, ZFP14 / Fold change vs veh, ZFP14 / RFU, ACTR2 / Fold change vs veh, ACTR2 / RFU, PPP3R1 / Fold change vs veh, PPP3R1 / RFU, PIK3R1 / Fold change vs veh, PIK3R1 / RFU, HNRNPA1 / Fold change vs veh, HNRNPA1 / RFU, RNF170 / Fold change vs veh, RNF170 / RFU, ZNF28 / Fold change vs veh, ZNF28 / RFU, RNGTT / Fold change vs veh, RNGTT / RFU, OGT / Fold change vs veh, OGT / RFU, BRD1 / Fold change vs veh, BRD1 / RFU, MARS / Fold change vs veh, MARS / RFU, ZNF655 / Fold change vs veh, ZNF655 / RFU, FAHD1 / Fold change vs veh, FAHD1 / RFU, BDP1 / Fold change vs veh, BDP1 / RFU, LRRCC1 / Fold change vs veh, LRRCC1 / RFU, ARID1A / Fold change vs veh, ARID1A / RFU, ZNF146 / Fold change vs veh, ZNF146 / RFU, ZNF330 / Fold change vs veh, ZNF330 / RFU, GPN3 / Fold change vs veh, GPN3 / RFU, C9orf123 / Fold change vs veh, C9orf123 / RFU, N4BP2L2 / Fold change vs veh, N4BP2L2 / RFU, ARFIP1 / Fold change vs veh, ARFIP1 / RFU, FAM179B / Fold change vs veh, FAM179B / RFU, BCL10 / Fold change vs veh, BCL10 / RFU, UHRF1BP1L / Fold change vs veh, UHRF1BP1L / RFU, BET1 / Fold change vs veh, BET1 / RFU, CNOT2 / Fold change vs veh, CNOT2 / RFU, ZNF268 / Fold change vs veh, ZNF268 / Fold change vs veh, ZNF507 / RFU, DGCR2 / Fold change vs veh, DGCR2 / RFU, WDSUB1 / Fold change vs veh, WDSUB1 / Fold change vs veh, HSP90B1 /// MIR3652 / RFU, ADSS / Fold change vs veh, ADSS / RFU, GK / Fold change vs veh, GK / RFU, ZNF148 / Fold change vs veh, ZNF148 / RFU, TAF9 / Fold change vs veh, TAF9 / RFU, SLC1A5 / Fold change vs veh, SLC1A5 / RFU, SLMO2 / Fold change vs veh, SLMO2 / RFU, ABCC4 / Fold change vs veh, ABCC4 / RFU, LOC101060439 /// RAP1B / Fold change vs veh, LOC101060439 /// RAP1B / RFU, RFX7 / Fold change vs veh, RFX7 / RFU, GTPBP10 / Fold change vs veh, GTPBP10 / RFU, CNEP1R1 / Fold change vs veh, CNEP1R1 / RFU, BIVM-ERCC5 /// ERCC5 / Fold change vs veh, BIVM-ERCC5 /// ERCC5 / RFU, ILF3 / Fold change vs veh, ILF3 / RFU 11762660_at / Fold change /veh 11762660_at / RFU VCAN (11757783_s_at) / Fold change /veh VCAN (11757783_s_at) / RFU DDX43 (11728927_at) / Fold change /veh DDX43 (11728927_at) / RFU KRT8 (11758188_x_at) / Fold change /veh KRT8 (11758188_x_at) / RFU NKD1 (11759106_at) / Fold change /veh NKD1 (11759106_at) / RFU SRD5A1 (11742802_a_at) / Fold change /veh SRD5A1 (11742802_a_at) / RFU TPSAB1 /// TPSB2 (11721975_s_at) / Fold change /veh TPSAB1 /// TPSB2 (11721975_s_at) / RFU GSTM3 (11746129_a_at) / Fold change /veh GSTM3 (11746129_a_at) / RFU IL23R (11737362_x_at) / Fold change /veh IL23R (11737362_x_at) / RFU TMEM51 (11727254_a_at) / Fold change /veh TMEM51 (11727254_a_at) / RFU PIWIL2 (11732686_x_at) / Fold change /veh PIWIL2 (11732686_x_at) / RFU ORM1 (11744905_x_at) / Fold change /veh ORM1 (11744905_x_at) / RFU CCDC152 (11743942_at) / Fold change /veh CCDC152 (11743942_at) / RFU ECM1 (11717891_a_at) / Fold change /veh ECM1 (11717891_a_at) / RFU IL23R (11748794_a_at) / Fold change /veh IL23R (11748794_a_at) / RFU TNFAIP8L3 (11732012_x_at) / Fold change /veh TNFAIP8L3 (11732012_x_at) / RFU MBOAT4 (11741988_at) / Fold change /veh MBOAT4 (11741988_at) / RFU 11764193_at / Fold change /veh 11764193_at / RFU TMEM53 (11763286_at) / Fold change /veh TMEM53 (11763286_at) / RFU MAGEB2 (11727129_at) / Fold change /veh MAGEB2 (11727129_at) / RFU TMEM200A (11744735_a_at) / Fold change /veh TMEM200A (11744735_a_at) / RFU CCDC152 (11751479_a_at) / Fold change /veh CCDC152 (11751479_a_at) / RFU FAM211A (11726209_a_at) / Fold change /veh FAM211A (11726209_a_at) / RFU RGS16 (11746705_a_at) / Fold change /veh RGS16 (11746705_a_at) / RFU VCAN (11755009_s_at) / Fold change /veh VCAN (11755009_s_at) / RFU RHOB (11743442_s_at) / Fold change /veh RHOB (11743442_s_at) / RFU RGS16 (11720943_a_at) / Fold change /veh RGS16 (11720943_a_at) / RFU RGS16 (11720944_at) / Fold change /veh RGS16 (11720944_at) / RFU, VPS4B / Fold change vs veh, VPS4B / RFU, CREB1 / Fold change vs veh, CREB1 / RFU, DNAJC13 / Fold change vs veh, DNAJC13 / RFU, GNAQ / Fold change vs veh, GNAQ / RFU, CDK5R1 / Fold change vs veh, CDK5R1 / RFU, ZRANB3 / Fold change vs veh, ZRANB3 / RFU, CUL4A / Fold change vs veh, CUL4A / RFU, CCNY / Fold change vs veh, CCNY / RFU, UFL1 / Fold change vs veh, UFL1 / RFU, COG3 / Fold change vs veh, COG3 / RFU, DIAPH2 / Fold change vs veh, DIAPH2 / RFU, SKA2 / Fold change vs veh, SKA2 / RFU, AFF3 / Fold change vs veh, AFF3 / RFU, LMF1 / Fold change vs veh, LMF1 / RFU, IPO11 / Fold change vs veh, IPO11 / RFU, DFFB / Fold change vs veh, DFFB / RFU, FOXP1 / Fold change vs veh, FOXP1 / RFU, CARD8 / Fold change vs veh, CARD8 / RFU, STRN3 / Fold change vs veh, STRN3 / RFU, ADK / Fold change vs veh, ADK / RFU, RASSF2 / Fold change vs veh, RASSF2 / RFU, WIPF1 / Fold change vs veh, WIPF1 / RFU, LARP1B / Fold change vs veh, LARP1B / RFU, RASA1 / Fold change vs veh, RASA1 / RFU, RB1 / Fold change vs veh, RB1 / RFU, PPFIA1 / Fold change vs veh, PPFIA1 / RFU, MAT2A / Fold change vs veh, MAT2A / RFU, CCT5 / Fold change vs veh, CCT5 / RFU, WDR92 / Fold change vs veh, WDR92 / RFU, CUX1 / Fold change vs veh, CUX1 / RFU, TTC7A / Fold change vs veh, TTC7A / RFU, TMEM135 / Fold change vs veh, TMEM135 / RFU, DEPTOR / Fold change vs veh, DEPTOR / RFU, CPM / Fold change vs veh, CPM / RFU, DNAJB6 / Fold change vs veh, DNAJB6 / RFU, CACNA2D3 / Fold change vs veh, CACNA2D3 / RFU, DTX4 / Fold change vs veh, DTX4 / RFU, TFCP2 / Fold change vs veh, TFCP2 / RFU, GMCL1 /// GMCL1P1 / Fold change vs veh, GMCL1 /// GMCL1P1 / RFU, AEBP2 / Fold change vs veh, AEBP2 / RFU, SNHG1 /// SNORD22 /// SNORD25 /// SNORD26 /// SNORD27 /// SNORD28 /// SNORD29 /// SNORD31 / Fold change vs veh, SNHG1 /// SNORD22 /// SNORD25 /// SNORD26 /// SNORD27 /// SNORD28 /// SNORD29 /// SNORD31 / Fold change (Aza/veh), C12orf56 (ProbeSet 11735607_a_at) / Fold change (ACY-1035/veh), C12orf56 (ProbeSet 11735607_a_at) / Fold change (Aza/veh), FGFR1OP (ProbeSet 11751329_s_at) / Fold change (ACY-1035/veh), FGFR1OP (ProbeSet 11751329_s_at) / Fold change (Aza/veh), VPS36 (ProbeSet 11739960_a_at) / Fold change (ACY-1035/veh), VPS36 (ProbeSet 11739960_a_at) / RFU SYPL1 (11715823_x_at) / Fold change /veh SYPL1 (11715823_x_at) / RFU IGFBP7 (11715501_s_at) / Fold change /veh IGFBP7 (11715501_s_at) / RFU REEP3 (11722064_at) / Fold change /veh REEP3 (11722064_at) / RFU IGLL1 (11728026_x_at) / Fold change /veh IGLL1 (11728026_x_at): dose or concentration left out as unconfirmed
Details: MV-4-11 cells, 48 hours

For `Nc1ncn([C@@H]2O[C@H](CO)[C@@H](O)[C@H]2O)c(=O)n1` [azacitidine], the “RFU TPSAB1 /// TPSB2 (11721975_s_at)” value was 24.54 RFU.
